{"source": "patent US11191804B2", "about": "“Cytocidal agent” (FUJITA ACADEMY, priority 2018, dated 2021)", "key": {"[1]": {"assay": "Body weight of endometriosis model mice after single intraperitoneal administration", "format": "in vivo, mouse", "settings": "for Body Weight, 7th day: 7 days after cell transplantation, before peptide administration (baseline); for Body Weight, 7th day / Body Weight, 8th day: mean ± standard error", "method": "Seven days after the A431-CNGB3-myc cells were intraperitoneally transplanted, 0.5 mL of physiological saline solution warmed to 37° C. was intraperitoneally administered to an endometriosis model mouse under isoflurane anesthesia, followed by performing massage. Immediately after the massage, a solution of the K14D-H5D peptide dissolved in physiological saline was intraperitoneally administered. The K14D-H5D peptide was administered at a dose of 0 mg/10 mL/kg (control) (n=7), 5 mg/10 mL/kg (n=8), or 10 mg/10 mL/kg (n=8) per mouse body weight\nEach mouse was weighed 7 days after the A431-CNGB3-myc cells were intraperitoneally transplanted, before K14D-H5D peptide administration and before exsanguination.\nThe mouse group in which the dose of the K14D-H5D peptide per mouse body weight was 0 mg/10 mL/kg was represented as G1 group, the mouse group in which the dose of the K14D-H5D peptide per mouse body weight was 5 mg/10 mL/kg was represented as G2 group, and the mouse group in which the dose of the K14D-H5D peptide per mouse body weight was 10 mg/10 mL/kg was represented as G3 group. […] In the Table, “7th day” in the “Body Weight” column is the body weight 7 days after the intraperitoneal transplantation of the A431-CNGB3-myc cells, which was before the administration of the K14D-H5D peptide, and “8th day” is the body weight 24 hours after the administration of the K14D-H5D peptide."}, "[2]": {"system": "OVCAR3-Luc cells", "assay": "Cytocidal activity by ATP amount (CellTiter-Glo assay kit)", "format": "cell-based", "method": "The tumor tissue to be transplanted to the mouse was prepared by culturing an ovarian cancer cell line (OVCAR3-Luc cells, transferred from another facility) into which the luciferase gene had been introduced, and used. The OVCAR3-Luc cells were cultured in a culture medium containing a RPMI medium 1640 (11875-093: manufactured by Gibco) containing 10% inactivated FBS (manufactured by Corning) at 37° C. and under a 5 vol % carbon dioxide environment. Passaging was carried out every 2-3 days.\n(§1) The cytocidal activity of each peptide was evaluated by measuring the ATP amount in the cells treated with each peptide using CellTiter-Glo (registered trademark) assay kit (manufactured by Promega).\n(§2) Specifically, first, the A431-CNGB3-myc cells or the OVCAR3-Luc cells after 3 to 4 passages were seeded in a 96-well plate (manufactured by Corning/Costar, Lot No. 00515003) so as to adjust the cell concentration to 1×10^4 cells/well. […] Luminescence (RLU: RELATIVE LIGHT UNITS) of each reaction solution after standing at room temperature was measured using a Synergy H1 hybrid multimode microplate reader (manufactured by BioTek). The luminescence intensity of the reaction solution is an index of the ATP amount. The smaller the luminescence intensity of the reaction solution, the smaller the ATP amount and the stronger the cytocidal activity of the administered peptide. […]"}, "[3]": {"system": "A431-CNGB3-myc cells", "assay": "Cytocidal activity by ATP amount (CellTiter-Glo assay kit)", "format": "cell-based, human", "settings": "peptide 2.34 to 300.0 μM, 24 hours, FIG. 1", "method": "A transformed cell (A431-CNGB3-myc cell) obtained by introducing a gene encoding human CNGB3, in which an myc tag was fused in a C-terminal, into an A431 cell (human epithelial-like cell cancer-derived cell strain) and forcibly expressing thereof was prepared as an endometriosis model cell.\nas §1\nas §2, with “peptide. All trials were measured in triplicate, and the average value thereof was taken as the emission intensity (RLU) of each reaction solution.” for “peptide.”"}}, "note": "Where no end group is shown, it is not given here. [ ]: non-standard residue; d: D form.", "data": [{"molecule": "CC(C)C[C@@H](NC(=O)[C@@H](Cc1c[nH]cn1)NC(=O)[C@@H](C)NC(=O)[C@@H](CC(C)C)NC(=O)[C@@H](Cc1c[nH]cn1)NC(=O)[C@@H](CCCCN)NC(=O)[C@@H](C)NC(=O)[C@@H](CC(C)C)NC(=O)[C@@H](CCCCN)NC(=O)[C@@H](C)NC(=O)[C@@H](CC(C)C)NC(=O)[C@@H](CCCCN)NC(=O)[C@@H](CCCCN)NC(=O)[C@@H](C)NC(=O)[C@@H](CC(C)C)NC(=O)[C@@H](CCCCN)NC(=O)[C@@H](C)NC(=O)[C@@H](CC(C)C)NC(=O)[C@H](N)CCCCN)C(=O)O", "note": "[Peptide K14D-H5D, KLAKLAK-KLAKLAK-HLAHL]", "values": [{"measurement": "change in body weight", "setting": "[1]; 5 or 10 mg/10 mL/kg single i.p., 24 hours after administration, depending on the dose", "result": "slight decrease"}, {"measurement": "Body Weight, 7th day", "setting": "[1]; G2 group, 5 mg/10 mL/kg i.p.", "result": "20.1 ± 0.4", "unit": "g"}, {"measurement": "Body Weight, 8th day", "setting": "[1]; G2 group, 5 mg/10 mL/kg single i.p., 24 hours after administration", "result": "19.2 ± 0.5", "unit": "g"}, {"measurement": "Body Weight, 7th day", "setting": "[1]; G3 group, 10 mg/10 mL/kg i.p.", "result": "20.0 ± 0.4", "unit": "g"}, {"measurement": "Body Weight, 8th day", "setting": "[1]; G3 group, 10 mg/10 mL/kg single i.p., 24 hours after administration", "result": "17.5 ± 0.3", "unit": "g"}]}, {"molecule": "KLAKLAK-HLAHLAH-HLAHLAH-HLAH ([dK][dL][dA][dK][dL][dA][dK][dH][dL][dA][dH][dL][dA][dH][dH][dL][dA][dH][dL][dA][dH][dH][dL][dA][dH]) [Peptide K7D-H18D, reference compound]", "values": [{"measurement": "relative ATP amount (%) / cytocidal activity", "setting": "[2]; OVCAR3-Luc cells, peptide 2.34 to 300.0 μM, 24 hours, FIG. 2", "result": "decreased in a dose-dependent manner"}, {"measurement": "relative ATP amount (%) / cytocidal activity", "setting": "[3]", "result": "decreased in a dose-dependent manner"}]}, {"molecule": "KLAKLAK-KLAKLAK-HLAHL-VRRADNRPG (KLAKLAKKLAKLAKHLAHLVRRADNRPG; not fully specified (some residues); printed as KLAKLAK-KLAKLAK-HLAHL-VRRADNRPG; also: D-amino acids, positions not given here) [Peptide K14D-H5D-Z13]", "values": [{"measurement": "cytocidal activity compared with the K14D-H5D peptide", "setting": "[2]; OVCAR3-Luc cells having no CNGB3 on the cell surface, FIG. 3", "result": "the same cytocidal activity"}]}]}
